Among the data in patent US7812026B2, “Imidazole derivatives having a positive allosteric GABAB receptor modulator effect and methods of use” (AstraZeneca AB, priority 2005, dated 2010) are EC50 values, retold here.

The assay deals with T1, GABAB receptor (Homo sapiens, UniProt O75899+Q9UBS5).
T1 construct: expressed in transfected cells; host or cells: CHO cells (membranes)
T1 sequence (Q9UBS5 15-961 limits assumed): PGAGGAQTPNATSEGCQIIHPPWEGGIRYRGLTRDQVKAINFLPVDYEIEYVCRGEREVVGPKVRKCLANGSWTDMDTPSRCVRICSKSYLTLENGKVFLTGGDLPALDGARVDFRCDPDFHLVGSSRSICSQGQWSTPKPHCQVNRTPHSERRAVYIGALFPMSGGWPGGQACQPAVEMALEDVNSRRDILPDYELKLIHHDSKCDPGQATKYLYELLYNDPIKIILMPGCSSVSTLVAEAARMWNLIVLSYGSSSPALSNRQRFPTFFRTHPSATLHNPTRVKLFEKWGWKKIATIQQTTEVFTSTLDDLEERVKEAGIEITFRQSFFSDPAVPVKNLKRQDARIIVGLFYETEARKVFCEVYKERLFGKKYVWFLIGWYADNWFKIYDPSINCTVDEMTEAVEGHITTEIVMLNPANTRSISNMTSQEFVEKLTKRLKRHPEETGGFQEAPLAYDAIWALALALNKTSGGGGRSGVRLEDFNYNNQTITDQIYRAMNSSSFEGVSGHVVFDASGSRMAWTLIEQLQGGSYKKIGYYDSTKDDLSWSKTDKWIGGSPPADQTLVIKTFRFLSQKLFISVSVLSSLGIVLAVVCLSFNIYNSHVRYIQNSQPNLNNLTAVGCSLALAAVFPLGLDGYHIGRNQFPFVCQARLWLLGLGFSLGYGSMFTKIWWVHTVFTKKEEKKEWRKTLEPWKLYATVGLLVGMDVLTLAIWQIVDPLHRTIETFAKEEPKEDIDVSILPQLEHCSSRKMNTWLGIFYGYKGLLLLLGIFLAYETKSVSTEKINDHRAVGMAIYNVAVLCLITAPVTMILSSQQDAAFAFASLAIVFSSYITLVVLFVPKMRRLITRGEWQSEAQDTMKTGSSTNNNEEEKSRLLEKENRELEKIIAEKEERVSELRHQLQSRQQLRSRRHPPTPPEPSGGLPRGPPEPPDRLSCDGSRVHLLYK
T1 sequence (O75899 42-941): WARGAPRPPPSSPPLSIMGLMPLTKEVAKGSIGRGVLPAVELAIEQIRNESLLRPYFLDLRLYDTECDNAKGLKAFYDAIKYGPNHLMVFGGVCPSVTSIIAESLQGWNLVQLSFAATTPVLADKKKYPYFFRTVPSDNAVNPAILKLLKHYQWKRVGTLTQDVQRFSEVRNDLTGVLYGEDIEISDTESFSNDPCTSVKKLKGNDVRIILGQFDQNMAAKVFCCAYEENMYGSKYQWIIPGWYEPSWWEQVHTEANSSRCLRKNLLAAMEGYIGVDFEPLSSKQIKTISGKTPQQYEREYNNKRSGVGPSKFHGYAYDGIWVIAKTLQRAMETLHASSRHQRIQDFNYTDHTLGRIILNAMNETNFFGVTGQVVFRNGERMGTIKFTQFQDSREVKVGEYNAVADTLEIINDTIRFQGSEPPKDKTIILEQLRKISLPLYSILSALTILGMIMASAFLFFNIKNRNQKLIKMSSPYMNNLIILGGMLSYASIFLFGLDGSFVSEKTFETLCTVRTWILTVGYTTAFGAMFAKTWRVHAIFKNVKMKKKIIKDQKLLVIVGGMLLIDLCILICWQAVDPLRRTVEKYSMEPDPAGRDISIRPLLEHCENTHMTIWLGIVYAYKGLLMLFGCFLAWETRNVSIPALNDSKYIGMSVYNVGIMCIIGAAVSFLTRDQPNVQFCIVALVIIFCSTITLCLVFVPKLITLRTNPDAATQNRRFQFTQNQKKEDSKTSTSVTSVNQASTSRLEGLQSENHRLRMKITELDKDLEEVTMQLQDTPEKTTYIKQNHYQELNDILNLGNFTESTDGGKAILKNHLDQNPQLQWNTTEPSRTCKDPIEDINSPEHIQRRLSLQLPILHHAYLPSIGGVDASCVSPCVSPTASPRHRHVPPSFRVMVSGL
As to the kind of experiment: [35S]-GTPγS binding assay, potency of PAM. The assay is classed as biochemical. Conditions: potency of the positive allosteric modulator; log EC50 for GABA plotted against log concentration of modulator. The protocol:
[^35S]-GTPγS binding assays were performed at 30° C. for 45 min in membrane buffer (100 mM NaCl, […], 1 mM EDTA, 50 mM HEPES, pH 7.4) containing 0.025 μg/μl of membrane protein (prepared from the cell lines described above) with 0.01% bovine serum albumin (fatty acid free), 10 μM GDP, 100 μM DTT and 0.53 nM [^35S]-GTPγS (Amersham-Pharmacia Biotech) in a final volume of 200 μl. Nonspecific binding was determined in the presence of 20 μM GTPγS. The reaction was started by the addition of GABA at concentration between 1 mM and 0.1 nM in the presence or absence of the required concentration of PAM. The reaction was terminated by addition of ice-cold wash buffer (50 mM Tris-HCl, 5 mM MgCl2, 50 mM NaCl, pH 7.4) followed by rapid filtration under vacuum through Printed Filtermat A glass fiber filters (Wallac) (0.05% PEI treated) using a Micro 96 Harvester (Skatron Instruments). The filters were dried for 30 min at 50° C., then a paraffin scintillant pad was melted onto the filters and the bound radioactivity was determined using a 1450 Microbeta Trilux (Wallac) scintillation counter.
GABA dose-response curves in the presence and absence of test compounds were constructed using the 4-parameter logistic equation, y=ymax+((ymin−ymax)/1+(x/C)^D), where C=EC50 and D=slope factor.
The potency of PAM in GTPγS assays was determined by plotting the log EC50 for GABA against the log concentration of the positive allosteric modulator in the presence of which the measurement was performed.
(In general: GTPγS is a poorly hydrolysed GTP analogue; its binding reports G protein activation.)
With `CN(C)c1nc(NC(=O)C2Cc3ccccc3O2)c(C(=O)OC(C)(C)C)n1-c1ccccc1` (stereo not drawn) [Example 13, tert-butyl 4-[(2,3-dihydro-1-benzofuran-2-ylcarbonyl)amino]-2-(dimethylamino)-1-phenyl-1H-imidazole-5-carboxylate], the EC50 (commonly the concentration needed to bring the measured effect to its halfway point) amounted to 5.13 µM.

The compound `CN(C)c1nc(NC(=O)COCc2ccccc2)c(C(=O)OC(C)(C)C)n1-c1ccccc1` [Example 9, tert-butyl 4-{[(benzyloxy)acetyl]amino}-2-(dimethylamino)-1-phenyl-1H-imidazole-5-carboxylate] registered a concentration giving a half-maximal response (EC50) of 2.47 µM.

Consider `CCCc1c(C(=O)Nc2nc(N(C)C)n(-c3ccccc3)c2C(=O)OC(C)(C)C)cnn1-c1ccccc1` [Example 44, tert-butyl 2-(dimethylamino)-1-phenyl-4-{[(1-phenyl-5-propyl-1H-pyrazol-4-yl)carbonyl]amino}-1H-imidazole-5-carboxylate], for which a half-maximal response (EC50) required 2.53 µM.
